From PubChem BioAssay (NCI)
Several values for one entry are separate records, joined by “and”; a condition that tells them apart may be missing. Identical values can stand only once.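 Compound exposure: 48 hours, 5 concentrations, 96-well plates. GI50 is the concentration that inhibits growth by half. TGI is the concentration that stops growth completely.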 *1 amine or outer side, *2 acyl side, *3 side chain or, on linkers, in order; H or OH if unused. Where a SMILES comes first, the peptide text is derived from it. [ ]: non-standard residue; d: D form. The star is where a group is joined. ξ: configuration not given here. X15 = CCN(CC)c1ccc2cc(N*)c(=O)oc2c1; dIva = CC[C@@](C)(N)C(=O)O; X14 = O=C(OCCN[*:1])[*:2]; Aib = CC(C)(N)C(=O)O; ξP = O=C(O)C1CCCN1; βAla = NCCC(=O)O

What was measured:
Assay in all cases: growth of human tumour cells (NCI), 48 h
[1] = system: UO-31 renal
[2] = system: UACC-62 melanoma
[3] = system: A549 NSCLC
[4] = system: SW-620 colon
[5] = system: MALME-3M melanoma
[6] = system: SK-OV-3 ovarian
[7] = system: SK-MEL-5 melanoma
[8] = system: MCF7 breast
[9] = system: M14 melanoma
[10] = system: ACHN renal

Row | SMILES | GI50 [1] | TGI [1] | GI50 [2] | TGI [2] | GI50 [3] | TGI [3] | GI50 [4] | TGI [4] | GI50 [5] | TGI [5] | GI50 [6] | TGI [6] | GI50 [7] | TGI [7] | GI50 [8] | TGI [8] | GI50 [9] | TGI [9] | GI50 [10] | TGI [10]
1 | CC1(C)CC[C@]2(C(=O)N3CCOCC3)CC[C@]3(C)C(=CC[C@@H]4[C@@]5(C)C/C(=C/c6ccncc6)C(=O)C(C)(C)[C@@H]5CC[C@]43C)[C@@H]2C1 | 0.893 µM | 14.2 µM | 1.36 µM | 40.9 µM | 1.22 µM | > 100 µM | 2.29 µM | > 100 µM | 1.57 µM | 4.59 µM | 3.58 µM | > 100 µM | 1.48 µM | 3.01 µM | 0.509 µM | 15.3 µM | 1.41 µM | 5.23 µM | 2.2 µM | 21.7 µM
2 | OCC1OC(n2cnc3c(=S)nc[nH]c32)C(O)C1O (stereo not drawn) | – | > 2500 µM | 3.56 µM | 1910 µM and > 100 µM | 42.5 µM | > 2500 µM | 7.29 µM | > 2500 µM | > 30 µM | 2480 µM and > 100 µM | 1.25 µM | 1060 µM and > 47.4 µM | 9.5 µM | > 2500 µM | 1.82 µM | > 2500 µM | 1.15 µM | > 2500 µM | 4.87 µM | > 2500 µM
3 | CN(C)CC1CCCCCC(CN(C)C)C1=O (stereo not drawn) | 1.77 µM | 4.5 µM | 8.12 µM | 22.9 µM | 14.7 µM | 30.7 µM | 1.13 µM | 2.72 µM | 2.19 µM | 5.01 µM | 27.9 µM | > 93.6 µM | 12.2 µM | 25.1 µM | 2.85 µM | 15.3 µM | 1.19 µM | 11.9 µM | 1.07 µM | 2.64 µM
4 | CCCOC(=O)CCn1c(SC)nc2[nH]cc(-c3ccccc3)c2c1=O | 23.9 µM | 75.5 µM | 11.7 µM | 26.5 µM | 15.8 µM | 65.8 µM | 28.3 µM | > 100 µM | 18.5 µM | 51.8 µM | 38.3 µM | > 100 µM | 15.9 µM | 35.1 µM | 19.7 µM | > 100 µM | 15.6 µM | > 100 µM | 22.2 µM | 77.2 µM
5 | Nc1nc(N)c(N=O)c(OCC2CCCCC2)n1 | 3.24 µM | 39.1 µM and 39.7 µM | – | 42.6 µM and 40.7 µM | 15 µM | > 100 µM and 79.7 µM | 20.4 µM | > 100 µM | 3.06 µM and 7.32 µM | 36.8 µM and 52.7 µM | 27.9 µM | > 80.9 µM and 74.3 µM | 13.7 µM | 60 µM and 42 µM | 3.46 µM | > 100 µM | 11.8 µM | > 100 µM and 52.2 µM | 5.47 µM | > 100 µM and 34.3 µM
6 | CC(C)N1C(NNC(=O)c2cnccn2)=NS(=O)(=O)c2ccccc21 | > 100 µM | > 100 µM | > 100 µM | > 100 µM | > 100 µM | > 100 µM | > 100 µM | > 100 µM | > 100 µM | > 100 µM | > 100 µM | > 100 µM | > 100 µM | > 100 µM | > 100 µM | > 100 µM | > 100 µM | > 100 µM | > 100 µM | > 100 µM
7 | CCN(CC)c1ccc2cc(NC(=O)OCCNC(=O)CCNC(=O)[C@H](CC(C)C)NC(=O)C(C)(C)NC(=O)C(C)(C)NC(=O)[C@H](CC(C)C)NC(=O)CCNC(=O)C(C)(C)NC(=O)[C@H](CC(C)C)NC(=O)CCNC(=O)[C@@](C)(CC)NC(=O)[C@H](C)NC(=O)CCNC(=O)C(C)(C)NC(=O)[C@H](C)NC(=O)[C@@H]3CCCN3C(=O)[C@@](C)(CC)NC(=O)[C@H](Cc3ccccc3)NC(=O)C3CCCN3C(=O)C(C)(C)NC(=O)C3CCCN3C(=O)C(C)(C)NC(C)=O)c(=O)oc2c1 (stereo partly drawn) (Ac-[Aib][ξP][Aib][ξP]F[dIva]PA[Aib][βAla]A[dIva][βAla]L[Aib][βAla]L[Aib][Aib]L[βAla][X14]-X15) | 0.0296 µM | 0.114 µM | 0.00385 µM | 0.0189 µM | 0.00354 µM | 0.115 µM | 0.0048 µM | 0.102 µM | 0.0021 µM | 0.00597 µM | 0.0028 µM | 0.00775 µM | 0.00256 µM | 0.00666 µM | 0.00313 µM | 0.0286 µM | 0.00838 µM | 0.0358 µM | 0.0406 µM | 0.16 µM
8 | O=C(COc1cccc(/C=C2\COc3ccc(Cl)cc3C2=O)c1)c1ccc(Cl)cc1 | 5.13 µM | 19.4 µM | 11 µM | 23.1 µM | 16.3 µM | 32.1 µM | 3.3 µM | 13 µM | 17.9 µM | 34.2 µM | 18.4 µM | 45.6 µM | 12.8 µM | 25.3 µM | 1.25 µM | 4.76 µM | 11.6 µM | 24.4 µM | 15.4 µM | 29.4 µM
9 | Nc1c(C(=O)Nc2ccccc2)sc2nc3c(cc12)CN(Cc1ccccc1)CC3 | 6.14 µM | > 100 µM | 13.9 µM | > 100 µM | 13.9 µM | > 100 µM | 20.8 µM | > 100 µM | 3.8 µM | > 100 µM | 3.53 µM | > 100 µM | 9.58 µM | > 100 µM | 12.1 µM | > 100 µM | 30.8 µM | > 100 µM | 5.5 µM | > 100 µM
10 | CCCOc1nc(SCCC)nc2c1cnn2-c1ccccc1 | > 100 µM | > 100 µM | > 100 µM | > 100 µM | > 100 µM | > 100 µM | > 100 µM | > 100 µM | > 100 µM | > 100 µM | > 100 µM | > 100 µM | > 100 µM | > 100 µM | > 100 µM | > 100 µM | > 100 µM | > 100 µM | > 100 µM | > 100 µM
11 | C=C1CCC2C3(C)COC(c4ccccc4Br)OC3CCC2(C)C1C/C=C1/C(=O)OCC1OC(C)=O (stereo not drawn) | 1.34 µM | 2.72 µM | 1.42 µM | 2.86 µM | 2.06 µM | 5.26 µM | 0.402 µM | 1.3 µM | 1.92 µM | 4.12 µM | 2.85 µM | 6.78 µM | 1.6 µM | 2.98 µM | 0.62 µM | 2 µM | 1.53 µM | 2.86 µM | 1.6 µM | 2.96 µM
